In US11339419B2, “Scavenger protein(s) for improved preservation of analyte detection sensor(s) and method(s) of use thereof” (Siemens Healthcare Diagnostics Inc., priority 2017, dated 2022):
Where “and” joins values, the source holds several entries; their conditions need not be identical. Equal entries are not always repeated.

Columns and labels:
[1] = tested on: creatininase (BBI Solutions); experiment: BBI Solutions Creatininase Enzyme Absorbance with BSA and MIT; assay type: biochemical; settings: days 4 and 14; with MIT
Procedure: Table 5-8 depict aqueous solutions comprising varying concentrations of BSA (at concentrations of 0 mg/mL, 5 mg/mL, 25 mg/mL, and 50 mg/mL), varying concentrations of MIT (at concentrations of 50 parts per million and 100 parts per million) or Proclin™ 300 (at concentrations of 0.7% and 1.4%) biocide over a particular time period (measurements were taken at days 0, 4, and 14 after exposure of the enzyme(s) to the particular aqueous solutions) and the associated enzyme absorbance measurements for creatininase (commercially offered for sale by BBI Solutions and Toyobo). Absorbance measurements of the creatininase enzyme(s) were taken via spectrophotometer for each aqueous solution (represented as columns 1-5 in Tables 5-8—column 6 is a blank), the absorbance being directly proportional to the enzyme activity being measured-which for Tables 5-8 is creatininase enzyme activity. Accordingly, the higher the absorbance measurement, the higher the enzyme activity of creatininase. Columns 7-11 represent five replicate readings in which the solution only contains BSA (i.e., there is no biocide(s) present in the solution). In addition, the mean values, standard deviations, and coefficients of variation are all presented for the enzyme activity/absorbance of each aqueous solution. All measurements were taken at 37° C.
As depicted in Table 5, creatininase (commercially offered for sale by BBI Solutions) enzyme activity is measured against various concentrations of MIT (biocide) and BSA (scavenger protein) over a period of 14 days (with absorbance measurement taken at 0, 4, and 14 days) for five different aqueous solutions (represented as columns 1-5—column 6 is a blank).

[2] = tested on: sarcosine oxidase (Toyobo); experiment: Toyobo Sarcosine Oxidase Enzyme Absorbance with BSA and MIT; assay type: biochemical; settings: for Sarcosine Oxidase Enzyme Absorbance, MEAN of 7-11 / Sarcosine Oxidase Enzyme Absorbance, replicates 7-11 / Sarcosine Oxidase Enzyme Absorbance, MEAN of 1-5 / Sarcosine Oxidase Enzyme Absorbance, solutions 1-5: 37° C.
Procedure: Tables 1-4 depict aqueous solutions comprising varying concentrations of BSA (at concentrations of 0 mg/mL, 5 mg/mL, 25 mg/mL, and 50 mg/mL), varying concentrations of MIT (at concentrations of 50 parts per million and 100 parts per million) or Proclin™ 300 (at concentrations of 0.7% and 1.4%) biocides over a particular time period (measurements were taken at days 0, 4, and 14 after exposure of the enzyme(s) to the aqueous solutions) and the associated enzyme absorbance measurements for sarcosine oxidase (commercially offered for sale by BBI Solutions and Toyobo). Absorbance measurements of the sarcosine oxidase enzyme(s) were taken via spectrophotometer for each aqueous solution (represented as columns 1-5 in Tables 1-4—column 6 is a blank), the absorbance being directly proportional to the enzyme activity being measured-which for Tables 1-4 is sarcosine oxidase enzyme activity. Accordingly, the higher the absorbance measurement, the higher the enzyme activity of sarcosine oxidase. Columns 7-11 represent five replicate readings in which the aqueous solution only contains BSA (i.e., there is no biocide(s) present in the aqueous solution). In addition, the mean values, standard deviations, and coefficients of variation are also presented for the enzyme activity/absorbance of each aqueous solution. All measurements were taken at 37° C.
As depicted below in Table 2, sarcosine oxidase (commercially offered for sale by Toyobo) enzyme activity is measured against various concentrations of MIT (biocide) and BSA (scavenger protein) over a period of 14 days (with absorbance measurements taken at 0, 4, and 14 days) for five different aqueous solutions (represented as columns 1-5-column 6 is a blank).

[3] = Day 0, 5 mg/mL BSA only, no MIT (50 ppm MIT row)
[4] = Day 0, 5 mg/mL BSA only, no MIT (100 ppm MIT row)
[5] = Day 0, 25 mg/mL BSA only, no MIT (50 ppm MIT row)
[6] = Day 0, 25 mg/mL BSA only, no MIT (100 ppm MIT row)
[7] = Day 0, 50 mg/mL BSA only, no MIT (50 ppm MIT row)
[8] = Day 0, 50 mg/mL BSA only, no MIT (100 ppm MIT row)
[9] = Day 0, 50 ppm MIT, 25 mg/mL BSA
[10] = Day 0, 50 ppm MIT, 50 mg/mL BSA
[11] = Day 4, 5 mg/mL BSA only, no MIT (50 ppm MIT row)
[12] = Day 4, 5 mg/mL BSA only, no MIT (100 ppm MIT row)
[13] = Day 4, 25 mg/mL BSA only, no MIT (50 ppm MIT row)
[14] = Day 4, 25 mg/mL BSA only, no MIT (100 ppm MIT row)
[15] = Day 4, 50 mg/mL BSA only, no MIT (50 ppm MIT row)
[16] = Day 4, 50 mg/mL BSA only, no MIT (100 ppm MIT row)
[17] = Day 14, 5 mg/mL BSA only, no MIT (50 ppm MIT row)
[18] = Day 14, 5 mg/mL BSA only, no MIT (100 ppm MIT row)
[19] = Day 14, 25 mg/mL BSA only, no MIT (50 ppm MIT row)
[20] = Day 14, 25 mg/mL BSA only, no MIT (100 ppm MIT row)
[21] = Day 14, 50 mg/mL BSA only, no MIT (50 ppm MIT row)
[22] = Day 14, 50 mg/mL BSA only, no MIT (100 ppm MIT row)

bovine serum albumin [BSA]
BSA concentration at which the creatininase absorbance measurement is highest [1]: 5 mg/mL
Sarcosine Oxidase Enzyme Absorbance, MEAN of 7-11 [2, 3]: 1.41
Sarcosine Oxidase Enzyme Absorbance, replicates 7-11 [2, 3]: 1.444 and 1.45 and 1.459 and 1.485 and 1.463
Sarcosine Oxidase Enzyme Absorbance, MEAN of 7-11 [2, 4]: 1.39
Sarcosine Oxidase Enzyme Absorbance, replicates 7-11 [2, 4]: 1.459 and 1.421 and 1.427 and 1.439 and 1.436
Sarcosine Oxidase Enzyme Absorbance, MEAN of 7-11 [2, 5]: 1.40
Sarcosine Oxidase Enzyme Absorbance, replicates 7-11 [2, 5]: 1.448 and 1.453 and 1.45 and 1.442 and 1.444
Sarcosine Oxidase Enzyme Absorbance, MEAN of 7-11 [2, 6]: 1.38
Sarcosine Oxidase Enzyme Absorbance, replicates 7-11 [2, 6]: 1.447 and 1.422 and 1.418 and 1.443 and 1.413
Sarcosine Oxidase Enzyme Absorbance, MEAN of 7-11 [2, 7]: 1.35
Sarcosine Oxidase Enzyme Absorbance, replicates 7-11 [2, 7]: 1.387 and 1.402 and 1.388 and 1.408 and 1.406
Sarcosine Oxidase Enzyme Absorbance, MEAN of 7-11 [2, 8]: 1.38
Sarcosine Oxidase Enzyme Absorbance, replicates 7-11 [2, 8]: 1.437 and 1.434 and 1.424 and 1.423 and 1.416
% Bias ([2]; Day 0, 50 ppm MIT vs no MIT, 5 mg/mL BSA): −0.3%
% Bias ([2]; Day 0, 50 ppm MIT vs no MIT, 25 mg/mL BSA): −1.0%
% Bias ([2]; Day 0, 50 ppm MIT vs no MIT, 50 mg/mL BSA): 2.4%
Sarcosine Oxidase Enzyme Absorbance, MEAN of 1-5 ([2]; Day 0, 50 ppm MIT, 5 mg/mL BSA): 1.41
Sarcosine Oxidase Enzyme Absorbance, solutions 1-5 ([2]; Day 0, 50 ppm MIT, 5 mg/mL BSA): 1.445 and 1.446 and 1.443 and 1.456 and 1.457
Sarcosine Oxidase Enzyme Absorbance, MEAN of 1-5 [2, 9]: 1.39
Sarcosine Oxidase Enzyme Absorbance, solutions 1-5 [2, 9]: 1.432 and 1.423 and 1.425 and 1.431 and 1.427
Sarcosine Oxidase Enzyme Absorbance, MEAN of 1-5 [2, 10]: 1.39
Sarcosine Oxidase Enzyme Absorbance, solutions 1-5 [2, 10]: 1.439 and 1.435 and 1.441
% Bias ([2]; Day 0, 100 ppm MIT vs no MIT, 5 mg/mL BSA): 0.3%
% Bias ([2]; Day 0, 100 ppm MIT vs no MIT, 25 mg/mL BSA): −0.7%
% Bias ([2]; Day 0, 100 ppm MIT vs no MIT, 50 mg/mL BSA): −1.1%
Sarcosine Oxidase Enzyme Absorbance, MEAN of 1-5 ([2]; Day 0, 100 ppm MIT, 5 mg/mL BSA): 1.39
Sarcosine Oxidase Enzyme Absorbance, MEAN of 1-5 ([2]; Day 0, 100 ppm MIT, 25 mg/mL BSA): 1.37
Sarcosine Oxidase Enzyme Absorbance, MEAN of 1-5 ([2]; Day 0, 100 ppm MIT, 50 mg/mL BSA): 1.37
Sarcosine Oxidase Enzyme Absorbance, MEAN of 7-11 [2, 11]: 0.10
Sarcosine Oxidase Enzyme Absorbance, replicates 7-11 [2, 11]: 0.251 and 0.247 and 0.255 and 0.261 and 0.267
Sarcosine Oxidase Enzyme Absorbance, MEAN of 7-11 [2, 12]: 0.79
Sarcosine Oxidase Enzyme Absorbance, replicates 7-11 [2, 12]: 0.933 and 0.941 and 0.967 and 0.963
Sarcosine Oxidase Enzyme Absorbance, MEAN of 7-11 [2, 13]: 1.22
Sarcosine Oxidase Enzyme Absorbance, replicates 7-11 [2, 13]: 1.388 and 1.399 and 1.382 and 1.357 and 1.362
Sarcosine Oxidase Enzyme Absorbance, MEAN of 7-11 [2, 14]: 1.23
Sarcosine Oxidase Enzyme Absorbance, replicates 7-11 [2, 14]: 1.366 and 1.381 and 1.402 and 1.382 and 1.388
Sarcosine Oxidase Enzyme Absorbance, MEAN of 7-11 [2, 15]: 1.24
Sarcosine Oxidase Enzyme Absorbance, replicates 7-11 [2, 15]: 1.386 and 1.428 and 1.403 and 1.415 and 1.372
Sarcosine Oxidase Enzyme Absorbance, MEAN of 7-11 [2, 16]: 1.24
Sarcosine Oxidase Enzyme Absorbance, replicates 7-11 [2, 16]: 1.384 and 1.407 and 1.4 and 1.389 and 1.388
% Bias ([2]; Day 4, 50 ppm MIT vs no MIT, 5 mg/mL BSA): 775.9%
% Bias ([2]; Day 4, 50 ppm MIT vs no MIT, 25 mg/mL BSA): 11.9%
% Bias ([2]; Day 4, 50 ppm MIT vs no MIT, 50 mg/mL BSA): 12.4%
Sarcosine Oxidase Enzyme Absorbance, MEAN of 1-5 ([2]; Day 4, 50 ppm MIT, 5 mg/mL BSA): 0.86
Sarcosine Oxidase Enzyme Absorbance, MEAN of 1-5 ([2]; Day 4, 50 ppm MIT, 25 mg/mL BSA): 1.37
Sarcosine Oxidase Enzyme Absorbance, MEAN of 1-5 ([2]; Day 4, 50 ppm MIT, 50 mg/mL BSA): 1.40
% Bias ([2]; Day 4, 100 ppm MIT vs no MIT, 5 mg/mL BSA): 16.5%
% Bias ([2]; Day 4, 100 ppm MIT vs no MIT, 25 mg/mL BSA): 10.4%
% Bias ([2]; Day 4, 100 ppm MIT vs no MIT, 50 mg/mL BSA): 11.1%
Sarcosine Oxidase Enzyme Absorbance, MEAN of 1-5 ([2]; Day 4, 100 ppm MIT, 5 mg/mL BSA): 0.92
Sarcosine Oxidase Enzyme Absorbance, MEAN of 1-5 ([2]; Day 4, 100 ppm MIT, 25 mg/mL BSA): 1.35
Sarcosine Oxidase Enzyme Absorbance, MEAN of 1-5 ([2]; Day 4, 100 ppm MIT, 50 mg/mL BSA): 1.37
Sarcosine Oxidase Enzyme Absorbance, MEAN of 7-11 [2, 17]: 0.29
Sarcosine Oxidase Enzyme Absorbance, replicates 7-11 [2, 17]: 0.329 and 0.33 and 0.348 and 0.327 and 0.333
Sarcosine Oxidase Enzyme Absorbance, MEAN of 7-11 [2, 18]: 0.31
Sarcosine Oxidase Enzyme Absorbance, replicates 7-11 [2, 18]: 0.342 and 0.353 and 0.351 and 0.382 and 0.368
Sarcosine Oxidase Enzyme Absorbance, MEAN of 7-11 [2, 19]: 1.36
Sarcosine Oxidase Enzyme Absorbance, replicates 7-11 [2, 19]: 1.406 and 1.41 and 1.429 and 1.404 and 1.403
Sarcosine Oxidase Enzyme Absorbance, MEAN of 7-11 [2, 20]: 1.41
Sarcosine Oxidase Enzyme Absorbance, replicates 7-11 [2, 20]: 1.443 and 1.445 and 1.46 and 1.471 and 1.461
Sarcosine Oxidase Enzyme Absorbance, MEAN of 7-11 [2, 21]: 1.41
Sarcosine Oxidase Enzyme Absorbance, replicates 7-11 [2, 21]: 1.436 and 1.456 and 1.449 and 1.465 and 1.488
Sarcosine Oxidase Enzyme Absorbance, MEAN of 7-11 [2, 22]: 1.42
Sarcosine Oxidase Enzyme Absorbance, replicates 7-11 [2, 22]: 1.476 and 1.446 and 1.464 and 1.474 and 1.469
% Bias ([2]; Day 14, 50 ppm MIT vs no MIT, 5 mg/mL BSA): 0.3%
% Bias ([2]; Day 14, 50 ppm MIT vs no MIT, 25 mg/mL BSA): 1.6%
% Bias ([2]; Day 14, 50 ppm MIT vs no MIT, 50 mg/mL BSA): 0.7%
Sarcosine Oxidase Enzyme Absorbance, MEAN of 1-5 ([2]; Day 14, 50 ppm MIT, 5 mg/mL BSA): 0.29
Sarcosine Oxidase Enzyme Absorbance, MEAN of 1-5 ([2]; Day 14, 50 ppm MIT, 25 mg/mL BSA): 1.39
Sarcosine Oxidase Enzyme Absorbance, MEAN of 1-5 ([2]; Day 14, 50 ppm MIT, 50 mg/mL BSA): 1.42
% Bias ([2]; Day 14, 100 ppm MIT vs no MIT, 5 mg/mL BSA): −0.8%
% Bias ([2]; Day 14, 100 ppm MIT vs no MIT, 25 mg/mL BSA): −0.1%
% Bias ([2]; Day 14, 100 ppm MIT vs no MIT, 50 mg/mL BSA): 0.2%
Sarcosine Oxidase Enzyme Absorbance, MEAN of 1-5 ([2]; Day 14, 100 ppm MIT, 5 mg/mL BSA): 0.31
Sarcosine Oxidase Enzyme Absorbance, MEAN of 1-5 ([2]; Day 14, 100 ppm MIT, 25 mg/mL BSA): 1.41
Sarcosine Oxidase Enzyme Absorbance, MEAN of 1-5 ([2]; Day 14, 100 ppm MIT, 50 mg/mL BSA): 1.42
absorbance of the sarcosine oxidase enzyme compared to samples containing 0 mg/mL of BSA ([2]; days 4 and 14, 5, 25 and 50 mg/mL BSA, with MIT): increased absorbance
sarcosine oxidase absorbance, solutions 7-11 ([2]; days 4 and 14, only BSA, no MIT): increased (or at least maintained)
